Results as given in patent US20040077563A1, “Methods of drug delivery to hepatocytes and treatment of flaviviridae infections” (priority 2003, published 2004).

Key:
[1] = test system: Hep3B, HepG2 & Huh7 cell lines; experiment: Uptake of [3H]-labeled nucleosides by different human liver cell lines; assay type: cell-based; conditions: for nucleoside uptake into hepatocytes (radioactivity in the cell lysate): Hep3B, HepG2, Huh7, 20 μCi/ml [3H]-nucleoside plus 10 μM cold nucleoside, 4 hr at 37° C, FIG. 1
Description: In order to determine whether Ribavirin and Viramidine™ use a similar mode of entry in human hepatocytes, the inventors performed several experiments. First, various strains of hepatocytes (Hep3B, HepG2, and Huh7) were incubated with various nucleotide analogs (e.g., Ribavirin, Levovirin (the L-isomer of Ribavirin), and Viramidine™), and the result of the nucleoside uptake experiments are illustrated in FIG. 1.
Hep3B, HepG2 & Huh7 cell lines were used at a concentration of 50,000 cells/well in a 24-wells plate, and incubated with [^3H]-labeled Ribavirin, Levovirin™, and Viramidine™ (20 μCi/ml) plus 10 μM cold nucleoside for 4 hr at 37° C. The cells were washed with PBS and lysed, and the radioactivity in the cell lysate (i.e.the amount of labeled nucleoside taken up by the cells) was determined in a scintillation counter.

HepG2 cells = experiment: Nucleoside competition assay; assay type: cell-based, human; conditions: cold competitor 0, 100 μM, 500 μM, 2 mM, 2 hrs at 37° C
Description: To address this question, the inventors performed uptake competition experiments in which radiolabeled Ribavirin or Viramidine™ competed for uptake with unlabeled Viramidine™ or Ribavirin, respectively.
50,000 HepG2 cells/well were placed in a 24-wells plate and incubated with [3H]-labeled nucleoside (20 μCi/ml). Competition was performed with increasing concentrations of cold (0, 100 μM, 500 μM, and 2 mM) competitor nucleoside. Incubation time was 2 hrs at 37° C. The cells were then washed with PBS and lysed. The radioactivity in the cell lysate (i.e. the amount of labeled nucleoside taken up by the cells) was determined in a scintillation counter.

erythrocytes [2] = conditions: stated as known for Ribavirin; cited from earlier work
flaviviridae = experiment: Inhibition of growth of flaviviridae in a cell containing medium; assay type: cell-based; conditions: added to a cell-containing medium; data not shown
Source text: The family of flaviviridae has recently gained special attention due to several occurrences of West Nile Virus encephalitis in the eastern part of the USA, resulting in at least 7 reported deaths and at least 62 cases of severe disease. Moreover, hepatitis C-like viruses (and the HCV virus) also belong to the family of flaviviridae, further adding to the significance of flaviviridae with respect to public and private health. While not wishing to be bound by a particular theory or hypothesis, it is contemplated that increased transport of Viramidine™*HCl is particularly beneficial for treatment of flaviridae-virus infections.

Water solubility = assay type: physicochemical
Source text: It is contemplated that Viramidine™*HCl (in either D- or L-configuration) will be administered in any appropriate pharmaceutical formulation, and under any appropriate protocol. Thus, administration may take place orally, parenterally (including subcutaneous injections, intravenous, intramuscularly, by intrasternal injection or infusion techniques), by inhalation spray, or rectally, topically and so forth, and in dosage unit formulations containing conventional non-toxic pharmaceutically acceptable carriers, adjuvants and vehicles. By way of example, it is contemplated that Viramidine™*HCl can be formulated in admixture with a pharmaceutically acceptable carrier. For example, Viramidine™*HCl can be administered orally as pharmacologically acceptable salts. […] Conventional buffers such as phosphates, bicarbonates or citrates can be used for this purpose. Of course, one of ordinary skill in the art may modify the formulations within the teachings of the specification to provide numerous formulations for a particular route of administration without rendering Viramidine™*HCl unstable or compromising their therapeutic activity. In particular, the modification of Viramidine™*HCl to render it more soluble in water or another vehicle, for example, may be easily accomplished by minor modifications (salt formulation, esterification, etc.) that are well within the ordinary skill in the art. […]

erythrocytes [3] = experiment: Uptake into erythrocytes; assay type: cell-based; conditions: data not shown
Source text: Thus, it should be appreciated that toxicity of a nucleoside or nucleotide compound can be reduced by modifying the compound to include a carboxamidine moiety or modified carboxamidine moiety as described above, wherein target cells for modified compounds include a transporter system, which non-target cells lack. […] It is contemplated that this difference in uptake is attributable to the lack of a Viramidine™ uptake and/or transporter system.

[4] = test system: deaminase/deamidase activity in hepatocytes; experiment: Conversion of carboxamidine to carboxamide in the liver; assay type: in vitro ADME; conditions: unpublished results
Source text: Therefore, it is contemplated that by including a carboxamidine group to a molecule and exploiting the relatively high deaminase/deamidase acitivity of hepatocytes, molecules may be specifically targeted to the liver. With respect to contemplated molecules having a —C(NR1)(NR2R3) it should be appreciated that various deaminase/deamidase acitivities of hepatocytes are sufficiently high to convert such compounds from a prodrug form into an active drug form (e.g., drug activity is increased when carboxamide group is present).

In the case of `NC(=O)c1ncn([C@H]2O[C@@H](CO)[C@H](O)[C@@H]2O)n1` [Levovirin, reference compound], the “nucleoside uptake into hepatocytes (radioactivity in the cell lysate)” value (from here on “nucleoside uptake into hepatocytes”) [1] is reported as “taken up into all of the tested hepatocytes”.
For `NC(=O)c1ncn([C@@H]2O[C@H](CO)[C@@H](O)[C@H]2O)n1` [Ribavirin, 1-beta-D-ribofuranosyl-1,2,4-triazole-3-carboxamide, reference compound], the “nucleoside uptake into hepatocytes” value [1] is given as “more efficiently taken up over the L-isomer of Ribavirin”, the “competition of [3H]-Viramidine uptake by unlabeled competitor” value (HepG2 cells; FIG. 3) is given as “at least partial competition” and the “uptake into erythrocytes (background statement)” value (erythrocytes [2]) is given as “readily taken up by erythrocytes”.
In the case of `Cl.N=C(N)c1ncn([C@@H]2O[C@H](CO)[C@@H](O)[C@H]2O)n1` [Viramidine™*HCl, 1-beta-D-ribofuranosyl-1,2,4-triazole-3-carboxamidine*HCl], the “inhibition of growth of flaviviridae” value (flaviviridae) is reported as “can be inhibited” and the water solubility (Water solubility) is reported as “mostly water soluble”.
In the case of `N=C(N)c1ncn([C@@H]2O[C@H](CO)[C@@H](O)[C@H]2O)n1` [Viramidine™, 1-beta-D-ribofuranosyl-1,2,4-triazole-3-carboxamidine], the “nucleoside uptake into hepatocytes” value [1] is reported as “taken up to a significantly higher degree in all three cell lines”, the “rate of uptake into, and overall concentration in, hepatocytes as compared to Ribavirin” value ([1]; hepatocytes) is reported as “significantly higher” and the uptake into erythrocytes (erythrocytes [3]) is reported as “not taken up into erythrocytes”. For the same compound, the “competition of [3H]-Ribavirin uptake by unlabeled competitor” value (HepG2 cells; FIG. 2) was “at least partial competition” and the “conversion in the liver” value [4] was “converted in the liver to Ribavirin”.
